Where a name gives a salt, the structure may show the parent alone.
Key:
PDE IV = test system: T1, PDE IV; test: Type IV PDE inhibition, hydrolysis of [3H]-cyclic AMP; assay type: biochemical, bovine; settings: Type IV PDE isolated from bovine tracheal smooth muscle; 0.2 μM cyclic AMP; read-out: PDE IV IC50
T1 construct: PDE IV IC50; other: Type IV PDE isolated from bovine tracheal smooth muscle; rolipram run in the
Description: The PDE IV inhibitory compounds of the present invention may be examined for their PDE IV inhibitory effects via the techniques set forth in the following examples, wherein the ability of the compounds to inhibit PDE IV isolated from bovine tracheal smooth muscle is set forth.
The Type IV PDE is isolated from bovine tracheal smooth muscle using a procedure similar to that previously described by Silver, P. J. et al., Eur. J. Pharmacol. 150:85,1988.(1). Briefly, smooth muscle from bovine trachea is minced and homogenized using a polytron in 10 volumes of an extraction buffer containing 10 mM Tris-acetate (pH 7.5), 2 mM magnesium chloride, 1 mM dithiothreitol and 2,000 units/ml of aprotinin. This and all subsequent procedures are performed at 0-4° C. The homogenate is sonicated and then centrifuged at 48,000×g for 30 minutes. The resulting supernatant is applied to a DEAE Trisacryl M column previously equilibrated with sodium acetate and dithiothreitol. After applications of the sample, the column is washed with sodium acetate/dithiothreitol, after whlich the different forms of PDE are eluted from the column using a linear Tris-HCl/NaCl gradient. Fractions containing Type IV PDE are collected, dialyzed and concentrated to 14% of the original volume. The concentrated fractions are diluted to 50% with ethylene glycol and stored at −20° C.
(§1) Enzyme activity is assessed by measuring the hydrolysis of [^3H]-cyclic AMP, as described by Thompson, W. J. et al., Adv. Cyclic Nucleotide Res. 10:69, 1979. The cyclic AMP concentration used in this assay is 0.2 μM, which approximates the Km value. Protein concentration is adjusted to ensure that no more than 15% of the available substrate is hydrolyzed during the incubation period.
(§2) All test compounds are dissolved in dimethyl sulfoxide (final concentration of 2.5%). This concentration of dimethyl sulfoxide inhibits enzyme activity by approximately 10%.

PDE III = biological target: T2, PDE III (Homo sapiens, UniProt Q14432); test: Type III PDE inhibition, hydrolysis of [3H]-cyclic AMP; assay type: biochemical; settings: for IC50: Type III PDE isolated from human platelets, 0.2 μM cyclic AMP
T2 construct: Fractions containing PDE III activity are pooled and dialyzed overnight; from tissue; host or cells: human platelets
T2 sequence (Q14432 whole entry): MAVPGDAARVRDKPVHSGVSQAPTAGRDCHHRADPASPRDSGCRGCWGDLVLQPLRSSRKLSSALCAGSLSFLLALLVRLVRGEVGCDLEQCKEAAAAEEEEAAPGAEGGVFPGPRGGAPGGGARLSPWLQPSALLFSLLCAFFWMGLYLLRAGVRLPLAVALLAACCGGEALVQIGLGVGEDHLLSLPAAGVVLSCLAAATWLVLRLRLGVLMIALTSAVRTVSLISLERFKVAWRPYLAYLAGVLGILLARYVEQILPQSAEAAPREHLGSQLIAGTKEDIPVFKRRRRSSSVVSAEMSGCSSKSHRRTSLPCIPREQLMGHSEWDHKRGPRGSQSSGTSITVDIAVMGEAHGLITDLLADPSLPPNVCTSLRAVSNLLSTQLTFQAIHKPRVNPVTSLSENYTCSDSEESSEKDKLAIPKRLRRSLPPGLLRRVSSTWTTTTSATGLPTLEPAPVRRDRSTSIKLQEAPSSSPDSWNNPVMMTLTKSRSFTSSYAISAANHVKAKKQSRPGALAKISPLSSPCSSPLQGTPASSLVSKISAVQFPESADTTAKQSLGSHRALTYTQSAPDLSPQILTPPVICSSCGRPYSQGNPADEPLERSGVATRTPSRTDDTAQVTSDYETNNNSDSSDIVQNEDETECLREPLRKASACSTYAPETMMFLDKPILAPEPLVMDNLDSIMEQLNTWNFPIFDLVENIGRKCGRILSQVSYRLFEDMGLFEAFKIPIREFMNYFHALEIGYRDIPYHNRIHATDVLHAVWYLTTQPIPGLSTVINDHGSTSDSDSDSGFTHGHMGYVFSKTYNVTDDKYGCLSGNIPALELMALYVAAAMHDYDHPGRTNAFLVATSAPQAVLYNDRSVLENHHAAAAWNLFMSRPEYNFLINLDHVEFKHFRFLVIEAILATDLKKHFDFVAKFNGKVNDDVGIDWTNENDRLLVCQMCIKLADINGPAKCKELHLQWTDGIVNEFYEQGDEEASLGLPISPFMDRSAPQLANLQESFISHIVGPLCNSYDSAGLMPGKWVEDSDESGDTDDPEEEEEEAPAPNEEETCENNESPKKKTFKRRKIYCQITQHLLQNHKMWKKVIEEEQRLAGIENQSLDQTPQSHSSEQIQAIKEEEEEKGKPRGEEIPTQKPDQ
Method: The Type III PDE is isolated from human platelets using a procedure similar to that previously described by Washer, R. E. et al., Biochem. Pharmacol., 35:787, 1986. Briefly, 1-2 units of platelets are suspended in an equal volume of buffer (20 mM Tris-HCl, pH 7.5, containing 2 mM magnesium acetate, 1 mM dithiothreitol, and 5 mM Na2EDTA). The proteinase inhibitor phenylmethyl-sulfonyl fluoride (PMSF) is also included in this buffer at a final concentration of 200 μM. The suspension is homogenized using a polytron and the homogenate centrifuged at 100,000×g for 60 minutes. This and all subsequent procedures are performed at 0-4° C. The supernatant is then filtered through four layers of gauze and applied to a DEAE-Trisacryl M column, previously equilibrated with buffer B (20 mM Tris-HCl, pH 7.5, containing 1 mM magnesium acetate, 1 mM dithiothreitol and 200 μM PMSF). After application of the sample, the column is washed with several bed volumes of buffer B, after which the different forms of PDE are eluted from the column using two successive linear NaCl gradients (0.05-0.15 M, 300 ml total; 0.15-0.40 M, 200 ml total). Five ml fractions are collected and assayed for cyclic AMP and cyclic GMP PDE activity. Fractions containing PDE III activity are pooled and dialyzed overnight against 4 L of buffer B. The dialyzed PDE III is then concentrated to 10% of the original volume, diluted to 50% with ethylene glycol monoethyl ether and stored at −20° C. PDE III can typically be retained for up to four weeks with little or no loss of activity.
as §1, with “approximates to” for “approximates”
as §2

Molecule	IC50 (PDE IV)	IC50 (PDE III)	inhibition at 10 µM (PDE III; at 10 μM)
COc1ccc(Cc2nc3cc(Cl)cc(CC(=O)O)c3o2)cc1OC1CCCC1 [Example 29, 2-(3-Cyclopentyloxy-4-methoxybenzyl)-5-chlorobenzoxazole-7-acetic Acid]	11.2 µM	100 µM	
COc1ccc(Cc2nc3cc(Cl)cc(CC(N)=O)c3o2)cc1OC1CCCC1 [Example 30, 2-(3-Cyclopentyloxy-4-methoxybenzyl)-5-chlorobenzoxazole-7-acetamide]	2.92 µM	128 µM	
COc1ccc(Cc2nc3cccc(NC(=O)c4cccnc4)c3o2)cc1OC1CCCC1 [Example 15, 2-((3-Cyclopentyloxy-4-methoxy)benzyl)-7-(nicotinoyl-amino)-benzoxazole]	4.79 µM	177 µM	
CC(C)(C)c1cc(Cc2nc3ccccc3o2)cc(C(C)(C)C)c1O [Example 45, 2-[4-Hydroxy-3,5-di-t-butyl-benzyl]Benzoxazole]	19.5 µM	72.4 µM	
COc1ccc(Cc2nc3cccc(N)c3o2)cc1OC1CCCC1 [Example 13, 7-Amino-2-((3-Cyclopentyloxy-4-methoxy)benzyl)-benzoxazole Hydrochloride]	13.7 µM	253 µM	
CC(C)c1cc(Cc2nc3cccc(C#Cc4ccccn4)c3o2)cc(C(C)C)c1O [Example 23]	0.26 µM	152 µM	
COc1ccc(Cc2nc3cccc(NC(=O)OCc4ccccc4)c3o2)cc1OC1CCCC1 [Example 18, 7-((Benzyloxycarbonyl)amino)-2-((3-Cyclopentyloxy-4-methoxy)-benzyl)-benzoxazole]	3.43 µM	> 300 µM	
2-(3-cyclopentyloxy-4-methoxybenzyl)-5-chlorobenzoxazole-7-ethanal Oxime [Example 31]	1.66 µM	> 300 µM	
COC(=O)c1cccc2oc(Cc3cc(C(C)(C)C)c(O)c(C(C)(C)C)c3)nc12 [Example 46, 2-[4-Hydroxy-3,5-di-t-butyl-benzyl]-4-carbomethoxybenzoxazole]	21.5 µM	702 µM	
COc1ccc(Cc2nc3cccc(NCc4cccnc4)c3o2)cc1OC1CCCC1 [Example 34, 2-(3-Cyclopentyloxy-4-methoxybenzyl)-7-(3-pyridylmethylamino)Benzoxazole]	1 µM	33.2 µM	
C=CCc1cc(Cl)cc2nc(Cc3ccc(OC)c(OC4CCCC4)c3)oc12 [Example 1, 7-Allyl-5-chloro-2-(3-cyclopentyloxy-4-methoxybenzyl)-benzoxazole]		> 300 µM	22%
COc1ccc(Cc2nc3cccc(NC(=O)c4ccccn4)c3o2)cc1OC1CCCC1 [Example 17, 2-((3-Cyclopentyloxy-4-methoxy)benzyl)-7-(2-pyridine-carbonylamino)-benzoxazole]	0.76 µM	121 µM	
COc1ccc(Cc2nc3cccc(Br)c3o2)cc1OC1CCCC1 [Example 19, 2-((3-Cyclopentyloxy-4-methoxy)benzyl)-7-bromo-benzoxazole]	0.47 µM	2.8 µM	
Clc1cccc(-c2nc3cccc(NCc4ccccn4)c3o2)c1 [Example 33, 2-(3-chlorophenyl)-7-(2-pyridylmethylamino)benzoxazole]	9.1 µM	173 µM	
OCCCc1cc(Cl)cc2nc(Cc3ccccc3)oc12 [Example 37, 2-Benzyl-5-chloro-7-(3-hydroxy-1-propyl)Benzoxazole]	39.1 µM	77 µM	
COc1ccc(CNc2cccc3nc(-c4cccc(Cl)c4)oc23)cc1OC1CCCC1 [Example 36, 2-(3-Chlorophenyl)-7-(3-cyclopentyloxy-4-methoxy-benzylamino)Benzoxazole]	15.8 µM	> 300 µM	
Cc1cc(Cc2nc3c(O)cccc3o2)cc(C)c1O [Example 21, 2-((3,5-Dimethyl-4-hydroxy)benzyl)-4-hydroxybenzoxazole]	24.5 µM	105 µM	

Molecule	IC50 (PDE IV)	IC50 (PDE III)	inhibition at 10 µM (PDE III; at 10 μM)
COc1ccc(CCc2nc3cc(Cl)ccc3o2)cc1OC [Example 43, 5-Chloro-2-[2-(3,4-dimethoxyphenyl)ethyl]Benzoxazole]	16.3 µM	> 300 µM	
COc1ccc(Cc2nc3cc(Cl)cc(CCO)c3o2)cc1OC1CCCC1 [Example 27, 2-(3-Cyclopentyloxy-4-methoxybenzyl)-5-chloro-7-(2-hydroxyethyl)Benzoxazole]	0.65 µM	38.1 µM	
COc1ccc(Cc2nc3c(OC(C)=O)cccc3o2)cc1OC1CCCC1 [Example 8, 4-Acetoxy-2-(3-cyclopentyloxy-4-methoxybenzyl)-benzoxazole]	0.75 µM	158 µM	
CC(C)(C)c1cc(Cc2nc3cc(Cl)cc(C#Cc4ccccn4)c3o2)cc(C(C)(C)C)c1O [Example 2, 5-Chloro-2-(3,5-di-t-butyl-4-hydroxy-benzyl)-7(2-(2-pyridyl)-ethynyl)-benzoxazole]	0.01 µM		
COc1ccc(Cc2nc3c(OC)cccc3o2)cc1OC1CCCC1 [Example 14, 2-((3-Cyclopentyloxy-4-methoxy)benzyl)-4-methoxy-benzoxazole]	1.99 µM	49.2 µM	
CC(C)(C)c1cc(CCc2nc3ccccc3o2)cc(C(C)(C)C)c1O [Example 47, 2-[2-(4-Hydroxy-3,5-di-t-butyl-phenyl)]Ethylbenzoxazole]	91.5 µM	> 300 µM	
CC(C)(C)c1cc(Cc2nc3cc(Cl)cc(C#Cc4nccs4)c3o2)cc(C(C)(C)C)c1O [Example 3, 5-Chloro-2-(3,5-di-t-butyl-4-hydroxy-benzyl)-7-(2-(2-thiazolyl)-ethynyl)-benzoxazole]	0.01 µM		
COc1ccc(Cc2nc3cccc(NC(=O)c4ccncc4)c3o2)cc1OC1CCCC1 [Example 16, 2-((3-Cyclopentyloxy-4-methoxy)benzyl)-7-(isonicotinoyl-amino)-benzoxazole Hydrochloride]	6.03 µM	43.9 µM	
CC(C)c1cc(Cc2nc3c(O)cccc3o2)cc(C(C)C)c1O [Example 20, 2-((3,5-Di-isopropyl-4-hydroxy)benzyl)-4-hydroxy-benzoxazole]	3.03 µM	34.3 µM	
CC(C)(C)c1cc(Cc2nc3cccc(C#Cc4ccccn4)c3o2)cc(C(C)(C)C)c1O [Example 22]	0.07 µM		
COc1ccc(-c2nc3cc(Cl)ccc3o2)cc1OC [Example 44, 5-Chloro-2-(3,4-dimethoxyphenyl)Benzoxazole]	19.3 µM	> 300 µM	
COc1ccc(Cc2nc3cc(Cl)cc(Br)c3o2)cc1OC1CCCC1 [Example 4, 7-Bromo-5-chloro-2-(3-cyclopentyloxy-4-methoxybenzyl)-benzoxazole]	25.1 µM	7.4 µM	
OCCCc1cccc2nc(Cc3ccccc3Cl)oc12 [Example 41, 2-(2-Chlorobenzyl)-7-(3-hydroxy-1-propyl)Benzoxazole]	69.3 µM	100 µM	
CCCc1cc(Cl)cc2nc(Cc3ccc(OC)c(OC4CCCC4)c3)oc12 [Example 40, 2-(3-Cyclopentyloxy-4-methoxybenzyl)-5-chloro-7-propylbenzoxazole]	0.92 µM	> 300 µM	
COc1ccc(Cc2nc3c(OCc4ccccn4)cccc3o2)cc1OC1CCCC1 [Example 10, 2-((3-Cyclopentyloxy-4-methoxy)benzyl)-4-(2-pyridylmethoxy)-benzoxazole Hydrochloride]	0.53 µM	> 300 µM	
Nc1cccc2nc(-c3cccc(Cl)c3)oc12 [Example 32]	32.5 µM	> 300 µM	

From patent US6372770B1, “Benzoxazoles” (Euro-Celtique, S.A., priority 1994, dated 2002)
